Experimental data taken from patent US20100285959A1, “HERBICIDAL MIXTURES” (priority 2006, published 2010).

Assays:
[1] = test system: smallflower umbrella sedge (CYPDI); assay: Test 32 greenhouse, simulated flooded rice culture; type: in vivo, Cyperus difformis; conditions: postemergence to flood, 21 DAA
Procedure: A greenhouse trial was conducted to evaluate the effects of Compound 1 and isoxadifen-ethyl at different ratios in simulated flooded rice culture. Plastic pots (11-cm diameter) were partially filled with non-sterilized Tama silt loam soil containing a 15:57:28 ratio of sand, silt and clay and 2.9% organic matter. Seeds of Heteranthera limosa (ducksalad; HETLI), Cyperus difformis (smallflower umbrella sedge; CYPDI), one stand of Echinochloa crus-galli (barnyardgrass; ECHCG), and one stand of four rice seedlings (Oryza sativa cv. ‘M202’; ORYSA) were planted into a single 11-cm diameter pot for each rate and mixture of rates. To obtain this planting, C. difformis and H. limosa seeds were planted separately on the surface soil layer at particular locations within each pot. Water levels were brought to a puddled condition above the soil surface directly after planting. E. crus-galli and rice seeds were planted in cavity trays in the silt loam soil and transplanted at the 1.5 and 2.0 leaf stage, respectively. E. crus-galli and rice plants were transplanted to about 2-cm depth by transferring plugs from the cavity trays. Plantings were sequential so that these plant species all reached the 2.0- to 2.5-leaf stage in the 11-cm diameter pot at time of treatment. Plantings were established and maintained in a greenhouse with day and night temperatures of about 29.5 and 26.7° C. respectively; supplemental balanced lighting was provided to maintain a 16-hour photoperiod. Pots were fertilized periodically with a 200 ppm solution of commercial Scotts Peters® Professional® General Purpose 20-20-20 Water Soluble Fertilizer, amended to 10 ppm with a commercial iron-chelate micronutrient fertilizer. The solution was supplied at time of watering via a liquid fertilizer injector.
At treatment time, test pots were flooded to 3 cm above the soil surface and maintained at that water depth for the duration of the test. Chemical treatments were formulated in acetone and applied directly to the paddy water (i.e., postemergence to flood). Make-up volumes of acetone were added to ensure that all pots were treated with a consistent volume. Test pots were maintained in the greenhouse. A randomized complete block design was employed. Five replicates of each treatment, alone and in mixture, were used. Each species was visually evaluated for treatment effects by comparing those treated to untreated controls and rated for plant response after 21 days.

velvetleaf (ABUTH) [2] = assay: Test 26 field trial, postemergence; type: in vivo, Abutilon theophrasti
From the text: (§1) Corn seeds (hybrid ‘Pioneer 31G96’) were planted in mid spring season, 3.8 cm deep in a silt loam soil having 2% organic matter and a pH of 6.6. Plots were 6.1 m long by 3.0 m wide with rows spaced 76 cm apart. Seeds were spaced 15 cm apart within the rows. The field was managed using conventional tillage practices. […] All treatments also included a surfactant. […] Some of the weed species could not be evaluated at every timing. […] Results are the means of the three replicates.

corn (ZEAMD) = assay: Test 26 field trial, postemergence; type: in vivo, Zea mays ssp. indentata; design: scale not given here
From the text: as §1

[3] = test system: common lambsquarters (CHEAL); assay: Test 26 field trial, postemergence; type: in vivo, Chenopodium album; design: scale not given here
From the text: as §1

field poppy (PAPRH) = assay: Test 24 growth chamber, postemergence; type: in vivo, Papaver rhoeas; conditions: 17 DAA
Procedure: Plants were treated postemergence at the 2-4 leaf growth stage, and each treatment was replicated three times. […] Plants were watered as needed. […] Results for barley and wheat are the means across varieties of the three replicates, and results for the weeds are the means of the three replicates.

velvetleaf (ABUTH) [4] = assay: Test 18 greenhouse, post- and preemergence; conditions: 15 DAA
field pennycress (THLAR) = assay: Test 4 field trial, postemergence; type: in vivo, Thlaspi arvense; design: scale not given here
Procedure: A field trial was conducted to evaluate the effects of mixtures of Compound 2 with commercial herbicides on spring wheat (TRZAS, Triticum aestivum L.) and several weed species. Wheat seeds (cv. ‘AC Intrepid’) were planted in late spring season, 3.8 cm deep in a loam soil having 2.7% organic matter and a pH of 7. Plots were 6 m long by 2.5 m wide. The field was managed using no-till practices. The plots were arranged in a randomized complete block design with each treatment being replicated four times. Treatments were applied postemergence 25 days after planting using a backpack sprayer delivering a spray volume of 55 L/ha using a pressure of 276 kPa. […] Compound 2 and clodinafop treatments, alone and in combination, also included a surfactant. Weed species present in the experimental plots in sufficient quantity to be evaluated included wild oat (AVEFA, Avena fatua L.), common lambsquarters (CHEAL, Chenopodium album L.), kochia (KCHSC, Kochia scoparia (L.) Schrad.), wild buckwheat (POLCO, Polygonum convolvulus L.), Russian thistle (SASKR, Salsola kali L. ssp. ruthenica (Iljin) Soo), and field pennycress (THLAR, Thlaspi arvense L.). […] Common lambsquarters was evaluated only at 14 days after application. […] Results are the means of the four replicates.

For `Nc1nc(C2CC2)nc(C(=O)O)c1Cl` [Compound 1, 6-amino-5-chloro-2-cyclopropyl-4-pyrimidinecarboxylic acid], the “CYPDI Obs” value ([1]; Cpd 1 31.25 g a.i./ha) was 80, the “CYPDI Obs” value ([1]; Cpd 1 62.5 g a.i./ha) was 74 and the “CYPDI Obs” value ([1]; Cpd 1 125 g a.i./ha) was 92.
For `COC(=O)c1nc(C2CC2)nc(N)c1Cl` [Compound 2, methyl 6-amino-5-chloro-2-cyclopropyl-4-pyrimidinecarboxylate], the “ABUTH Obs” value (velvetleaf (ABUTH) [2]; 14 DAA, 30 g a.i./ha) was 86, the “ABUTH Obs” value (velvetleaf (ABUTH) [2]; 14 DAA, 45 g a.i./ha) was 64 and the “ABUTH Obs” value (velvetleaf (ABUTH) [2]; 14 DAA, 60 g a.i./ha) was 95. For the same compound, the “ABUTH Obs” value (velvetleaf (ABUTH) [2]; 28 DAA, 30 g a.i./ha) was 80, the “ABUTH Obs” value (velvetleaf (ABUTH) [2]; 28 DAA, 45 g a.i./ha) was 59 and the “ABUTH Obs” value (velvetleaf (ABUTH) [2]; 28 DAA, 60 g a.i./ha) was 90. For the same compound, the “ABUTH Obs” value (velvetleaf (ABUTH) [2]; 56 DAA, 30 g a.i./ha) was 40, the “ABUTH Obs” value (velvetleaf (ABUTH) [2]; 56 DAA, 45 g a.i./ha) was 57 and the “ABUTH Obs” value (velvetleaf (ABUTH) [2]; 56 DAA, 60 g a.i./ha) was 63. For the same compound, the “ZEAMD Obs” value (corn (ZEAMD); 14 DAA, 30 g a.i./ha) was 0, the “ZEAMD Obs” value (corn (ZEAMD); 14 DAA, 45 g a.i./ha) was 2 and the “ZEAMD Obs” value (corn (ZEAMD); 14 DAA, 60 g a.i./ha) was 7. The “ZEAMD Obs” value (corn (ZEAMD); 28 DAA, 30 g a.i./ha) was 2, the “ZEAMD Obs” value (corn (ZEAMD); 28 DAA, 45 g a.i./ha) was 3 and the “ZEAMD Obs” value (corn (ZEAMD); 28 DAA, 60 g a.i./ha) was 5. The “ZEAMD Obs” value (corn (ZEAMD); 56 DAA, 30 g a.i./ha) was 0, the “ZEAMD Obs” value (corn (ZEAMD); 56 DAA, 45 g a.i./ha) was 0 and the “ZEAMD Obs” value (corn (ZEAMD); 56 DAA, 60 g a.i./ha) was 7. For the same compound, the “CHEAL Obs” value ([3]; 14 DAA, 30 g a.i./ha) was 88, the “CHEAL Obs” value ([3]; 14 DAA, 45 g a.i./ha) was 63 and the “CHEAL Obs” value ([3]; 14 DAA, 60 g a.i./ha) was 100. The “CHEAL Obs” value ([3]; 28 DAA, 30 g a.i./ha) was 100, the “CHEAL Obs” value ([3]; 28 DAA, 45 g a.i./ha) was 100 and the “CHEAL Obs” value ([3]; 28 DAA, 60 g a.i./ha) was 100. The “CHEAL Obs” value ([3]; 56 DAA, 30 g a.i./ha) was 100, the “CHEAL Obs” value ([3]; 56 DAA, 45 g a.i./ha) was 100 and the “CHEAL Obs” value ([3]; 56 DAA, 60 g a.i./ha) was 100. For the same compound, the “PAPRH Obs (scale 0 to 100)” value (field poppy (PAPRH); Cpd 2 4 g a.i./ha) was 62, the “PAPRH Obs (scale 0 to 100)” value (field poppy (PAPRH); Cpd 2 8 g a.i./ha) was 72 and the “PAPRH Obs (scale 0 to 100)” value (field poppy (PAPRH); Cpd 2 16 g a.i./ha) was 75. The “Postemergence ABUTH Obs” value (velvetleaf (ABUTH) [4]; alone at 15 g a.i./ha) was 39, the “Preemergence ABUTH Obs” value (velvetleaf (ABUTH) [4]; alone at 15 g a.i./ha) was 16 and the “Postemergence ABUTH Obs” value (velvetleaf (ABUTH) [4]; alone at 30 g a.i./ha) was 58. The “Preemergence ABUTH Obs” value (velvetleaf (ABUTH) [4]; alone at 30 g a.i./ha) was 26, the “Postemergence ABUTH Obs” value (velvetleaf (ABUTH) [4]; alone at 45 g a.i./ha) was 67 and the “Preemergence ABUTH Obs” value (velvetleaf (ABUTH) [4]; alone at 45 g a.i./ha) was 28. For the same compound, the “THLAR Obs” value (field pennycress (THLAR); 14 DAA, Cpd 2 30 g a.i./ha alone or with fenoxaprop 90) was 0, the “THLAR Obs” value (field pennycress (THLAR); 14 DAA, Cpd 2 60 g a.i./ha alone or with clodinafop 56 or fenoxaprop 90) was 0 and the “THLAR Obs” value (field pennycress (THLAR); 35 DAA, Cpd 2 30 g a.i./ha alone or with clodinafop 56 or fenoxaprop 90) was 0. For the same compound, the “THLAR Obs” value (field pennycress (THLAR); 35 DAA, Cpd 2 60 g a.i./ha alone or with fenoxaprop 90) was 8.
